Counter-ions that a name gives are not always drawn. Like-named read-outs stand apart in the source and are kept apart here.
Columns and labels:
[1] = target: T1, cPLA2 crudely purified from the cytoplasm fraction of U937 (Homo sapiens, UniProt P47712); test: Measurement of cPLA2 inhibitory activity (release of [14C]-arachidonic acid from phosphatidyl choline liposome); type: biochemical
T1 construct: cPLA2 crudely purified from the cytoplasm fraction of U937; endogenous in cells; host or cells: U937 cells (cytoplasm fraction, crude purification)
T1 sequence (P47712 1-749): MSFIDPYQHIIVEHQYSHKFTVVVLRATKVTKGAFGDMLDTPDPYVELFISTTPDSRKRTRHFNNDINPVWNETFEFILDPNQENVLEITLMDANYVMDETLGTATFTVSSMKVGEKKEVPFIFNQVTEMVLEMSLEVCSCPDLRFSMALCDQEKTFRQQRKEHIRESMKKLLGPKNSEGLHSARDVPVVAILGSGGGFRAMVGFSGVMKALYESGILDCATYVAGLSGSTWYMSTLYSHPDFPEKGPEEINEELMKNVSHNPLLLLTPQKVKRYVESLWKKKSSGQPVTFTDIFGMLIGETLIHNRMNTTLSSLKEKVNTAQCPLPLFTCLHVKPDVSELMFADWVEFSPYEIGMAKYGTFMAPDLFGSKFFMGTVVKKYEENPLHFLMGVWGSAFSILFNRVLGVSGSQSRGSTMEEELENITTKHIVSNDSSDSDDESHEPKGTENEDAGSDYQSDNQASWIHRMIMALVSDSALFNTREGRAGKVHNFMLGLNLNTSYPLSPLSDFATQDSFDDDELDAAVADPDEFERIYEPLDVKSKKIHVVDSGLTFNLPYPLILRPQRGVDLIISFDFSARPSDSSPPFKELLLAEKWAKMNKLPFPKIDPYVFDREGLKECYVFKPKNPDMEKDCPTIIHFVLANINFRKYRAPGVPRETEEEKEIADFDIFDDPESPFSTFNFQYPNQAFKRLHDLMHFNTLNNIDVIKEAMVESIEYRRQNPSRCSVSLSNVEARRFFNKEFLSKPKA
In short: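 The read-out is radioactivity from extracted [14C]-arachidonic acid, freed over 60 min at 37° C from liposomes of 14C-arachidonyl phosphatidylcholine (10 μM PC in the added solution). Buffer was 50 mM HEPES pH 7.5 with Ca2+, DTT, NaCl and BSA. IC50 was derived from inhibition relative to enzyme control minus no-enzyme control.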

[2] = system: PGE2 production in mouse peritoneal exudate cells; test: LPS-induced PGE2 production system using mouse peritoneal exudate cells; type: cell-based; conditions: LPS 10 μg/ml, 6 hours
Experimental: For evaluation of the PGE2 production inhibiting activity, the lipopolysaccharide (LPS)-induced PGE2 production system using mouse peritoneal exudate cells with reference to the method of Kim et al. (see Kim, Y K et al., Biol Pharm Bull 25: 472, 2002) was used. That is, 2 ml of thioglycolate solution (made by Sigma, Brewer's Thioglycorate medium) per mice were intraperitoneally administered to 8-week old female C3H/HeN mice (Charles River Japan). After 4 days, a phosphate buffer saline (PBS) 5 ml was used to wash the abdominal cavity and the infiltrating cells were recovered. The recovered cells were suspended in a predetermined concentration in an RPMI1640 medium (Nacalai Tesque) containing 10% bovine fetal serum (BioWhittaker) and 10 μg/ml gentamycin (Invitrogen).
The infiltrating cell suspension 100 μl containing 2×10^5 cells per well was inoculated in a 96-well culture plate, then the test compound solution or solvent 50 μl was added. Under conditions of 5% CO2 and 37° C., this was precultured for 15 minutes, then LPS (made by Sigma: L-4524) solution 50 μl (final concentration of LPS of 10 μg/ml) was added, and the mixture was cultured for a further 6 hours. After the end of the culture, the culture supernatant was recovered and the PGE2 concentration in the supernatant was measured using an EIA kit (made by Amersham). Based on the measurement value, the test compound concentration suppressing 50% of the PGE2 production at the time of non-addition of a compound (IC50 value) was calculated.

[3] = cPLA2 from U937 cytoplasm fraction, [14C]arachidonyl-phosphatidyl choline liposome, 37° C., 60 minutes, read-out: cPLA2 inhibitory activity, 50% inhibiting concentration IC50

SMILES	IC50 [1, 3]	IC50 [2]	IC50 [1]
O=C(O)CCc1ccc2c(c1)c(CCc1ccccc1)cn2-c1cccc(O)c1 [Example 157, 3-[1-(3-hydroxyphenyl)-3-(2-phenylethyl)-1H-indol-5-yl]propanoic acid]	186 nM	2250 nM	
O=C(O)CCc1ccc2c(c1)c(CCc1ccccc1)cn2-c1ccccc1O [Example 147, 3-[1-(2-hydroxyphenyl)-3-(2-phenylethyl)-1H-indol-5-yl]propanoic acid]	779 nM	1240 nM	
CN(C)c1ccc(-n2cc(CCc3ccccc3)c3cc(CCC(=O)O)ccc32)nc1 [Example 138, 3-{1-[5-(dimethylamino)-2-pyridinyl]-3-(2-phenylethyl)-1H-indol-5-yl}propanoic acid hydrochloride]	34 nM	580 nM	
O=C(O)CCc1ccc2c(c1)c(CCc1ccccc1)cn2-c1cccnc1 [Example 128, 3-[3-(2-phenylethyl)-1-(3-pyridinyl)-1H-indol-5-yl]propanoic acid hydrochloride]	250 nM	6430 nM	
CCOc1ccc(-n2cc(CCc3ccccc3)c3cc(CCC(=O)NC#N)ccc32)cc1 [Example 115, N-cyano-3-[1-(4-ethoxyphenyl)-3-(2-phenylethyl)-1H-indol-5-yl]propanamide]	61 nM	300 nM	
Cc1c(CCc2ccccc2)c2cc(CCC(=O)O)ccc2n1-c1ccccc1 [Example 48, 3-[2-methyl-1-phenyl-3-(2-phenylethyl)-1H-indol-5-yl]propanoic acid]	126 nM	2490 nM	
O=C(O)CCc1ccc2c(c1)c(CCc1ccccc1)cn2-c1ccc(OCc2ccccc2)cc1 [Example 124, 3-{1-[4-(benzyloxy)phenyl]-3-(2-phenylethyl)-1H-indol-5-yl}propanoic acid 2-amino-2-(hydroxymethyl)propane-1,3-diol salt (1:1)]	8 nM	130 nM	
O=C(O)CCc1ccc2c(c1)c(CCc1ccccc1)cn2-c1ccccc1 [Example 17, 3-[1-phenyl-3-(2-phenylethyl)-1H-indol-5-yl]propanoic acid 2-amino-2-(hydroxymethyl)propane-1,3-diol salt (1:1)]	38 nM	1320 nM	
CCOc1ccc(-n2cc(CCc3ccccc3)c3cc(CCC(=O)C(F)(F)F)ccc32)cc1 [Example 114, 4-[1-(4-ethoxyphenyl)-3-(2-phenylethyl)-1H-indol-5-yl]-1,1,1-trifluorobutan-2-one]	740 nM	2220 nM	
CC(C(=O)c1cn(-c2ccccc2)c2ccc(/C=C/C(=O)O)cc12)c1ccccc1 (stereo not shown) [Example 26, (2E)-3-[1-phenyl-3-(2-phenylpropanoyl)-1H-indol-5-yl]-2-propenoic acid]	3400 nM		
COc1ccccc1-n1cc(CCc2ccccc2)c2cc(CCC(=O)O)ccc21 [Example 109, 3-[1-(2-methoxyphenyl)-3-(2-phenylethyl)-1H-indol-5-yl]propanoic acid 2-amino-2-(hydroxymethyl)propane-1,3-diol salt (1:1)]	224 nM		
CN(C)c1cccc(-n2cc(CCc3ccccc3)c3cc(CCC(=O)O)ccc32)c1 [Example 179, 3-{1-[3-(dimethylamino)phenyl]-3-(2-phenylethyl)-1H-indol-5-yl}propanoic acid]	182 nM		
CC(Cc1cn(-c2ccccc2)c2ccc(CCC(=O)O)cc12)c1ccccc1 (stereo not shown) [Example 28, 3-[1-phenyl-3-(2-phenylpropyl)-1H-indol-5-yl]propanoic acid 2-amino-2-(hydroxymethyl)propane-1,3-diol salt (1:1)]	258 nM		
CN(C)S(=O)(=O)c1cccc(-n2cc(CCc3ccccc3)c3cc(CCC(=O)O)ccc32)c1 [Example 322, 3-[1-{3-[(dimethylamino)sulfonyl]phenyl}-3-(2-phenylethyl)-1H-indol-5-yl]propanoic acid]	1910 nM		
O=C(O)CCc1ccc2c(c1)c(CCc1ccccc1)cn2-c1cccc(OCc2ccccc2)c1 [Example 155, 3-{1-[3-(benzyloxy)phenyl]-3-(2-phenylethyl)-1H-indol-5-yl}propanoic acid 2-amino-2-(hydroxymethyl)propane-1,3-diol salt (1:1)]	208 nM		
O=C(O)/C=C/c1ccc2c(c1)c(C(=O)c1ccc3ccccc3c1)cn2-c1ccccc1 [Example 53, (2E)-3-[3-(2-naphthoyl)-1-phenyl-1H-indol-5-yl]-2-propenoic acid]			5520 nM
CC(C(=O)c1cn(-c2ccccc2)c2ccc(CCC(=O)O)cc12)c1ccccc1 (stereo not shown) [Example 27, 3-[1-phenyl-3-(2-phenylpropanoyl)-1H-indol-5-yl]propanoic acid 2-amino-2-(hydroxymethyl)propane-1,3-diol salt (1:1)]	385 nM		
O=C(O)CCc1ccc2c(c1)c(C(=O)Cc1ccccc1)cn2-c1ccccc1 [Example 12, 3-[1-phenyl-3-(phenylacetyl)-1H-indol-5-yl]propanoic acid]			261 nM
O=C(O)CCc1ccc2c(c1)c(CCc1ccccc1)cn2-c1ccc(OCCc2cccnc2)cc1 [Example 253, 3-{3-(2-phenylethyl)-1-[4-(2-pyridin-3-ylethoxy)phenyl]-1H-indol-5-yl}propanoic acid]	14 nM		
